# Starred links: 1 amine or outer side, 2 acyl side, 3 side chain; linkers in the order of their positions; H or OH if unused. Positions of bridges follow the written chain, without caps; N, C: chain ends. Non-standard residues stand in square brackets, D forms with d. Residues, ends and D or L forms follow the SMILES beside them. hSer = N[C@@H](CCO)C(=O)O; X1 = C(CC[*:2])C[*:1]; Aib = CC(C)(N)C(=O)O
# Target: T1, Vitamin D3 receptor (Homo sapiens, UniProt P11473)
# T1 sequence (P11473 whole entry): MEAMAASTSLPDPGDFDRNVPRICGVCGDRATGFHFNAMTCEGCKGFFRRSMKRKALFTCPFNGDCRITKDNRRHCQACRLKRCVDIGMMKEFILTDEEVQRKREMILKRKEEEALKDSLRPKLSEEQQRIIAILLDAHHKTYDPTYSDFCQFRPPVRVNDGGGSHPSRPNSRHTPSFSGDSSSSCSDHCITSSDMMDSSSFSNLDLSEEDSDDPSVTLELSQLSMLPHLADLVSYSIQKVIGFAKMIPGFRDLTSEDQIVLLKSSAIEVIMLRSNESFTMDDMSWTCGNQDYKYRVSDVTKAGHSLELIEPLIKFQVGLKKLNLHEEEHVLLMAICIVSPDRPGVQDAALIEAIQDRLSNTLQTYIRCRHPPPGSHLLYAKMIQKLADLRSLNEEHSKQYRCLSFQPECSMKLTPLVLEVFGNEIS
# Test: Inhibition of human VDR-coactivator interaction
row,SMILES,IC50
1,CC(C)C[C@@H]1NC(=O)[C@H](CC(C)C)NC(=O)C(C)(C)NC(=O)[C@H](NC(=O)[C@H](CC(C)C)NC(=O)[C@@H](N)CC(C)C)COCCCCOC[C@@H](C(=O)O)NC1=O,610 µM
2,CC(C)C[C@@H]1NC(=O)[C@H](CC(C)C)NC(=O)C(C)(C)NC(=O)[C@H](NC(=O)[C@H](CC(C)C)NC(=O)[C@@H](N)CC(C)C)COCCCCOC[C@H](C(=O)O)NC1=O,600 µM
3,CC(C)C[C@@H]1NC(=O)[C@H](CC(C)C)NC(=O)C(C)(C)NC(=O)[C@@H](NC(=O)[C@H](CC(C)C)NC(=O)[C@@H](N)CC(C)C)COCCCCOC[C@H](C(=O)O)NC1=O,430 µM
4,CC(C)C[C@@H]1NC(=O)[C@H](CC(C)C)NC(=O)C(C)(C)NC(=O)[C@@H](NC(=O)[C@H](CC(C)C)NC(=O)[C@@H](N)CC(C)C)COCCCCOC[C@@H](C(=O)O)NC1=O,610 µM
5,CC(C)C[C@@H]1NC(=O)[C@H](CC(C)C)NC(=O)C(C)(C)NC(=O)[C@@H](NC(=O)[C@H](CC(C)C)NC(=O)[C@@H](N)CC(C)C)CCOCCCCOC[C@@H](C(=O)O)NC1=O (H-LL[hSer][Aib]LLS-OH; linker 3-7 via X1),520 µM
6,CC(C)C[C@@H]1NC(=O)[C@H](CC(C)C)NC(=O)C(C)(C)NC(=O)[C@@H](NC(=O)[C@H](CC(C)C)NC(=O)[C@@H](N)CC(C)C)CCOCCCCOCC[C@@H](C(=O)O)NC1=O (H-LL[hSer][Aib]LL[hSer]-OH; linker 3-7 via X1),220 µM
7,CC(C)C[C@@H]1NC(=O)[C@H](CC(C)C)NC(=O)C(C)(C)NC(=O)[C@@H](NC(=O)[C@H](CC(C)C)NC(=O)[C@@H](N)CC(C)C)CCOCC(O)C(O)COCC[C@@H](C(=O)O)NC1=O (mixture of isomers),3.2 µM
